Test results: US20080312150A1 (priority 1999, published 2008)

Assays:
LNCaP cells [1] = test: Confocal laser scanning microscopy of PPIX fluorescence in living cells; format: cell-based, human; conditions: 10^−7 M R1881 72 hours, then 0.3 mM ALA 4 hours; excitation 488 nm
Method: LNCaP cells were pretreated with 10^−7 M R1881 for 72 hours or with vehicle, and then incubated with 0.3 mM ALA. At 4 hours the living cells were imaged using the confocal laser scanning microscope. Excitation was at 488 nm and both green (auto fluorescence) and red (PPIX) fluorescence was recorded and combined.

LNCaP tumors = test: PpIX formation in LNCaP tumors in vivo (confocal imaging of frozen sections); parameters: species or system SCID mice; conditions: 400 pg/kg R1881, after 4 days 250 mg/kg ALA i.p., tumors removed at 4 hours; 633 nm excitation
Method: SCID mice bearing LNCaP tumors were pretreated with a high dose of 400 pg/kg R1881 and after 4 days received 250 mg/kg ALA i.p. At 4 hours, the mice were sacrificed and the tumors removed. Frozen sections of the tumors were imaged on the confocal laser scanning microscope. Using 633 nm excitation, the sections of tumors from an untreated mouse (FIG. 5A) and an R1881-pretreated mouse (FIG. 5B) were imaged at the same instrument parameters.

LNCaP cells [2] = test: PDT using ALA-induced PpIX, cell survival (MTT conversion assay); format: cell-based, human; conditions: for survival after PDT: versus no pretreatment; for light dose to reduce cell survival by 50% (MTT): 514 nm light
Method: ALA-induced PpIX for PDT of LNCaP cells with (circles) or without (triangles) pretreatment for 72 hours with 10^−7 M R1881. The cells were incubated with ALA concentrations from 0.1 to 1.0 mM for four hours prior to exposure to 10 J/cm^2 of 514 nm light.
PDT using ALA-induced PpIX in LNCaP cells with (circles) or without (triangles) pretreatment for 72 hours with 10^−7 M R1881. The cells were incubated with 0.3 mM ALA for four hours prior to exposure to 3-20 J/cm^2 of 514 nm light.
(§1) LNCaP (human prostate cancer) cells were treated with methotrexate (1 μg/ml) for 72 hours. The cells were then incubated with 0.3 mM ALA for 4 hours. After ALA treatment, cells were either used for quantification of PpIX or exposed to 514 nm light. […] This enhancement of PDT by chemotherapy can also be seen when long-term survival was assessed by colony formation assay (FIG. 6B). Here, the 50% levels are reached at 25 J/cm2, compared to 2 J/cm2. […] Chemotherapeutic effect was also confirmed using cyclophosphamide.

[3] = test system: LNCaP human prostate cancer cells; test: ALA-induced PpIX formation by LNCaP cells; format: cell-based
Method: ALA-induced PpIX formation by LNCaP human prostate cancer cells. The cells were incubated for four hours with 0.3 mM ALA after 72 hours of pretreatment with the synthetic androgen R1881 at concentrations between 10^−10 to 10^−6.
as §1

human skin = test: Fluorescence micrograph of ALA-induced PpIX in human skin; conditions: human skin incubated in ALA for 4 hours
[4] = test system: LNCaP (human prostate cancer) cells; test: PDT long-term survival by colony formation assay; format: cell-based; conditions: 514 nm light
Method: as §1

[5] = cell line and regimen not stated
Method: as §1

[6] = PDT alone: 0.3 mM ALA 4 hours, no methotrexate
[7] = combined regimen: methotrexate 1 μg/ml 72 hours, 0.3 mM ALA 4 hours

C[C@]1(O)CC[C@H]2[C@@H]3CCC4=CC(=O)CCC4=C3C=C[C@@]21C [R1881]
PPIX fluorescence in cells (LNCaP cells [1]): strong PPIX fluorescence in almost all cells
PpIX formation in tumors (LNCaP tumors): increased PpIX formation
survival after PDT (LNCaP cells [2]; 72 hours 10^−7 M R1881, 0.3 mM ALA four hours, 3-20 J/cm^2 of 514 nm light): Reduced survival
survival after PDT (LNCaP cells [2]; 72 hours 10^−7 M R1881, ALA 0.1 to 1.0 mM four hours, 10 J/cm^2 of 514 nm light): Reduced survival
ALA-induced PpIX formation (% of cells without androgen treatment) ([3]; 72 hours pretreatment with R1881 10^−10 to 10^−6, then 0.3 mM ALA four hours): significant increase

NCC(=O)CCC(=O)O [ALA]
light dose to reduce cell survival by 50% (MTT) (LNCaP cells [2]; [6]): 20 J/cm2
ALA-induced PpIX fluorescence signal across epidermal layers (human skin): increase of fluorescence signal from bottom to top epidermal layers
light dose for 50% level (colony formation) [4, 6]: 25 J/cm2

CN(Cc1cnc2nc(N)nc(N)c2n1)c1ccc(C(=O)N[C@@H](CCC(=O)O)C(=O)O)cc1 [methotrexate]
light dose to reduce cell survival by 50% (MTT) (LNCaP cells [2]; [7]): 2 J/cm2
increase in PpIX levels ([3]; methotrexate 1 μg/ml 72 hours, then 0.3 mM ALA 4 hours, mean+/−standard deviation): 4.1±1.1 fold
light dose for 50% level (colony formation) [4, 7]: 2 J/cm2

O=P1(N(CCCl)CCCl)NCCCO1 (stereo not drawn) [cyclophosphamide]
chemotherapeutic effect (enhancement of PDT by pretreatment) [5]: confirmed
